Results taken from patent US20150105252A1, “SUBSTITUTED PYRAZOLES AS HERBICIDES” (E I DU PONT DE NEMOURS AND COMPANY, priority 2013, published 2015).

Legend:
barnyardgrass [1] = assay: Test A preemergence; format: in vivo, Echinochloa crus-galli; settings: preemergence
Method in brief: (§1)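 Seeds were sown in a loam soil–sand blend and given a directed soil spray preemergence; postemergence plants at 2–10 cm, one- to two-leaf stage, were sprayed with compound in non-phytotoxic solvent with surfactant. After about 10 days in a greenhouse, injury was visually rated against untreated controls (0 = no effect, 100 = complete control).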

kochia [2] = assay: Test A preemergence; format: in vivo, Kochia scoparia
Source text: (§2) Seeds of plant species selected from barnyardgrass (Echinochloa crus-galli), kochia (Kochia scoparia), common ragweed (Ambrosia elation), Italian ryegrass (Lolium multiflorum), crabgrass, large (large crabgrass, Digitaria sanguinalis), foxtail, giant (giant foxtail, Setaria faberii), morningglory (Ipomoea spp.), pigweed (redroot pigweed, Amaranthus retroflexus), velvetleaf (Abutilon theophrasti), wheat (Triticum aestivum), and corn (Zea mays) were planted into a blend of loam soil and sand and treated preemergence with a directed soil spray using test chemicals formulated in a non-phytotoxic solvent mixture which included a surfactant.
(§3) At the same time, plants selected from these crop and weed species and also blackgrass (Alopecurus myosuroides), and galium (catchweed bedstraw, Galium aparine) were planted in pots containing the same blend of loam soil and sand and treated with postemergence applications of test chemicals formulated in the same manner. Plants ranged in height from 2 to 10 cm and were in the one- to two-leaf stage for the postemergence treatment. Treated plants and untreated controls were maintained in a greenhouse for approximately 10 days, after which time all treated plants were compared to untreated controls and visually evaluated for injury. Plant response ratings, summarized in Table A, are based on a 0 to 100 scale where 0 is no effect and 100 is complete control. A dash (-) response means no test result.

common ragweed [3] = assay: Test A preemergence; format: in vivo, Ambrosia elation
Source text: as §2, §3

Italian ryegrass [4] = assay: Test A preemergence; format: in vivo, Lolium multiflorum
Source text: as §2, §3

foxtail, giant [5] = assay: Test A preemergence; format: in vivo, Setaria faberii; settings: preemergence
Method in brief: as §1

pigweed [6] = assay: Test A preemergence; format: in vivo, Amaranthus retroflexus; settings: preemergence
Method in brief: as §1

barnyardgrass [7] = assay: Test A postemergence; format: in vivo, Echinochloa crus-galli
Method in brief: as §1

kochia [8] = assay: Test A postemergence; format: in vivo, Kochia scoparia
Source text: as §2, §3

common ragweed [9] = assay: Test A postemergence; format: in vivo, Ambrosia elation
Source text: as §2, §3

Italian ryegrass [10] = assay: Test A postemergence; format: in vivo, Lolium multiflorum
Source text: as §2, §3

foxtail, giant [11] = assay: Test A postemergence; format: in vivo, Setaria faberii
Method in brief: as §1

pigweed [12] = assay: Test A postemergence; format: in vivo, Amaranthus retroflexus
Method in brief: as §1

wheat = assay: Test A postemergence; format: in vivo, Triticum aestivum
Method in brief: as §1

corn = assay: Test A postemergence; format: in vivo, Zea mays
Method in brief: as §1

blackgrass = assay: Test A postemergence; format: in vivo, Alopecurus myosuroides
Source text: as §2, §3

galium = assay: Test A postemergence; format: in vivo, Galium aparine
Source text: as §2, §3

rice = assay: Test B flood; format: in vivo, Oryza sativa; settings: 250 g ai/ha, visual rating on 0 to 100 scale (0 no effect, 100 complete control), 13 to 15 days
Method in brief: (§4)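 2-leaf plants; pots flooded 3 cm over soil; compound added to paddy water, depth kept constant. Greenhouse 13–15 d. Visual rating vs controls, 0–100 scale (100 = complete control); dash = no result.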

sedge, umbrella = assay: Test B flood; format: in vivo, Cyperus difformis; settings: 250 g ai/ha, visual rating on 0 to 100 scale (0 no effect, 100 complete control), 13 to 15 days
Method in brief: as §4

ducksalad = assay: Test B flood; format: in vivo, Heteranthera limosa; settings: 250 g ai/ha, visual rating on 0 to 100 scale (0 no effect, 100 complete control), 13 to 15 days
Method in brief: as §4

barnyardgrass [13] = assay: Test B flood; format: in vivo, Echinochloa crus-galli; settings: 250 g ai/ha, visual rating on 0 to 100 scale (0 no effect, 100 complete control), 13 to 15 days
Method in brief: as §4

[14] = 125 g ai/ha, visual injury, 0 to 100 scale, approx. 10 days
[15] = 500 g ai/ha, visual injury after approx. 10 days, 0 to 100 scale (0 no effect, 100 complete control)
[16] = Postemergence, 500 g ai/ha, 0 to 100 scale (0 no effect, 100 complete control)
[17] = postemergence, 125 g ai/ha, about 10 days, visual rating on 0 to 100 scale (0 no effect, 100 complete control)

Structure (SMILES): CCc1cc(C(=O)NCC(F)(F)F)nn1Cc1cc(C(F)(F)F)no1 [Compound 123]
- Barnyardgrass plant response rating (barnyardgrass [1]; [14]): 0
- Barnyardgrass plant response rating (barnyardgrass [1]; [15]): 100
- Kochia plant response rating (kochia [2]; [14]): 10
- Kochia plant response rating (kochia [2]; [15]): 100
- Common Ragweed plant response rating (common ragweed [3]; [14]): 10
- Common Ragweed plant response rating (common ragweed [3]; [15]): 50
- Italian Ryegrass plant response rating (Italian ryegrass [4]; [14]): 0
- Italian Ryegrass plant response rating (Italian ryegrass [4]; [15]): 30
- Foxtail, Giant plant response rating (foxtail, giant [5]; [14]): 20
- Foxtail, Giant plant response rating (foxtail, giant [5]; [15]): 100
- Pigweed plant response rating (pigweed [6]; [14]): 70
- Pigweed plant response rating (pigweed [6]; [15]): 100
- Barnyardgrass plant response rating (barnyardgrass [7]; [16]): 60
- Barnyardgrass plant response rating (barnyardgrass [7]; [17]): 0
- Kochia plant response rating (kochia [8]; [16]): 90
- Kochia plant response rating (kochia [8]; [17]): 50
- Common Ragweed plant response rating (common ragweed [9]; [16]): 40
- Common Ragweed plant response rating (common ragweed [9]; [17]): 10
- Italian Ryegrass plant response rating (Italian ryegrass [10]; [16]): 30
- Italian Ryegrass plant response rating (Italian ryegrass [10]; [17]): 10
- Foxtail, Giant plant response rating (foxtail, giant [11]; [16]): 90
- Foxtail, Giant plant response rating (foxtail, giant [11]; [17]): 0
- Pigweed plant response rating (pigweed [12]; [16]): 100
- Pigweed plant response rating (pigweed [12]; [17]): 70
- Wheat plant response rating (wheat; [16]): 10
- Wheat plant response rating (wheat; [17]): 0
- Corn plant response rating (corn; [16]): 60
- Corn plant response rating (corn; [17]): 20
- Blackgrass plant response rating (blackgrass; [16]): 50
- Blackgrass plant response rating (blackgrass; [17]): 10
- Galium plant response rating (galium; [16]): 80
- Galium plant response rating (galium; [17]): 10
- Plant response rating, Rice (rice): 10
- Plant response rating, Sedge, Umbrella (sedge, umbrella): 60
- Plant response rating, Ducksalad (ducksalad): 60
- Plant response rating, Barnyardgrass (barnyardgrass [13]): 20
